Data taken from patent US7736911B2, “Activity-based probes for protein tyrosine phosphatases” (Albert Einstein College of Medicine of Yeshiva University, priority 2004, dated 2010).

How the values were obtained:
[1] = Stability of probe in buffers and toward nucleophiles (NMR and mass spectrometry)
[2] = system: PTPs, including PTP1B, HePTP, SHP2, LAR, PTPα, PTPH1, VHR, and Cdc14; assay: PTP inactivation by BBP-based probes, several PTPs (pNPP substrate); format: biochemical; settings: for effectiveness at inhibiting PTP activity, I compared with II: pNPP as substrate
[3] = system: PTPs: YopH, PTP1B, HePTP, SHP2, FAP-1, PTPα, DEP-1, VHR, Cdc14, PRL3, low molecular weight PTP; format: binding; settings: pH 6
[4] = system: panel of non-PTP enzymes/proteins; format: binding
[5] = system: total cell lysates from E. coli; format: binding
[6] = Solubility in aqueous solution; format: physicochemical; settings: compared with II

## O=C(CCCCC1SCC2NC(=O)NC21)NCc1ccc(C(Br)P(=O)(O)O)cc1 (stereo not shown) [Compound I, [Bromo-(4-{[5-(2-oxo-hexahydro-thieno[3,4-d]imidazol-6-yl)-pentanoylamino]-methyl}-phenyl)-methyl]-phosphonic acid]
[1]; 48 hours with 100 mM DTT, 50 mM azide or 50 mM cysteine, pH 6 or 7 buffers
  reaction with nucleophilic agents: did not produce the expected substitution products
[1]; pH 6 buffers
  stability in buffer: quite stable
[1]; pH>7
  stability in buffer (solvolysis): significant solvolysis could be detected
[2]
  effect of scavenging nucleophiles on rate of PTP inactivation: did not affect the rate
  effectiveness at inhibiting PTP activity, I compared with II: equally effective at inhibiting PTP activity
[2]; extensive dialysis and/or buffer exchange of the reaction mixture
  reversibility of PTP inactivation: irreversible
[3]
  covalent labeling of PTPs: covalently incorporated into all PTPs tested
[4]
  reactivity towards non-PTP enzymes/proteins: none of the proteins tested were reactive
[5]
  labeling of E. coli proteins: no E. coli proteins were labeled
[6]
  solubility in aqueous solution: better solubility in aqueous solution

## arsenate [reference compound]
[2]
  protection of PTP from BBP-mediated inactivation: able to protect PTP from BBP-mediated inactivation

## O=C(O)CCCC[C@@H]1SC[C@@H]2NC(=O)N[C@@H]21 [biotin, reference compound]
[3]
  covalent labeling of PTPs: did not label the PTPs

## O=C(CCCCC1SCC2NC(=O)NC21)NCCCCCC(=O)NCc1ccc(C(Br)P(=O)(O)O)cc1 (stereo not shown) [Compound II, {Bromo-[4-({6-[5-(2-oxo-hexahydro-thieno[3,4-d]imidazol-6-yl)-pentanoylamino]-hexanoylamino}-methyl)-phenyl]-methyl}-phosphonic acid]
[2]
  effectiveness at inhibiting PTP activity, I compared with II: equally effective at inhibiting PTP activity
